PubChem BioAssay AID248 (DTP/NCI, 2004)
Several values for one entry are separate records, joined by “and”; a condition that tells them apart may be missing. Equal values may be shown once. Inconclusive results and toxic doses are left out. Cut-off read from the data, not from the text of the source: active = T/C of 150% or more; inactive = T/C below 125%.

System: L1210 leukemia ip in BDF1 mice, survival T/C
Test: NCI In Vivo Anticancer Drug Screen. Data for tumor model L1210 Leukemia (intraperitoneal) in B6D2F1 (BDF1) mice
Details: endpoint: mean survival time, higher = longer survival
Summary of the method: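 Survival endpoint. Drug-treated group vs vehicle group, expressed as T divided by C. Tumor passaged by transplantation.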

[1] = dose: 100.0 mg/kg/injection, schedule: Q01DX001 (ip), vehicle: saline
[2] = dose: 200.0 mg/kg/injection, schedule: Q01DX001 (ip), vehicle: saline
[3] = dose: 400.0 mg/kg/injection, schedule: Q01DX001 (ip), vehicle: saline
[4] = dose: 100.0 mg/kg/injection, schedule: Q01DX009 (ip), vehicle: saline with Tween-80
[5] = dose: 200.0 mg/kg/injection, schedule: Q01DX009 (ip), vehicle: saline with Tween-80
[6] = dose: 100.0 mg/kg/injection, schedule: Q04DX002 (ip), vehicle: saline
[7] = dose: 200.0 mg/kg/injection, schedule: Q04DX002 (ip), vehicle: saline
[8] = dose: 100.0 mg/kg/injection, schedule: Q01DX001 (ip), vehicle: other
[9] = dose: 200.0 mg/kg/injection, schedule: Q01DX001 (ip), vehicle: other
[10] = dose: 100.0 mg/kg/injection, schedule: Q04DX003 (ip), vehicle: saline with Tween-80
[11] = dose: 400.0 mg/kg/injection, schedule: Q01DX009 (ip), vehicle: saline with Tween-80
[12] = dose: 400.0 mg/kg/injection, schedule: Q04DX003 (ip), vehicle: saline with Tween-80
[13] = dose: 100.0 mg/kg/injection, schedule: Q04DX002 (ip), vehicle: saline with Tween-80
[14] = dose: 200.0 mg/kg/injection, schedule: Q04DX002 (ip), vehicle: saline with Tween-80
[15] = dose: 400.0 mg/kg/injection, schedule: Q04DX002 (ip), vehicle: saline with Tween-80

Measured: T/C

CC(C)(C)N1CC(C(=O)O)C1
inactive: [1] 97 % of control | [2] 103 % of control | [3] 97 % of control

Cc1ccc(NC(=O)C2CCC(C)(C(=O)O)C2(C)C)cc1 (stereo unspecified)
inactive: dose: 50.0 mg/kg/injection, schedule: Q01DX009 (ip), vehicle: saline with Tween-80 104 % of control | [4] 101 % of control | [5] 93 % of control

O=COC(CCCc1ccccc1)c1ccc2c(c1)OCO2 (stereo unspecified)
inactive: dose: 100.0 mg/kg/injection, schedule: Q04DX003 (ip), vehicle: other 93 % of control | dose: 200.0 mg/kg/injection, schedule: Q04DX003 (ip), vehicle: other 93 % of control | dose: 400.0 mg/kg/injection, schedule: Q04DX003 (ip), vehicle: other 98 % of control

CC(CCC(=O)O)(c1cc(Cl)c(O)c(Cl)c1)c1cc(Cl)c(O)c(Cl)c1
inactive: dose: 100.0 mg/kg/injection, schedule: Q01DX009 (ip), vehicle: gum acacia 95 % of control | dose: 100.0 mg/kg/injection, schedule: Q04DX003 (ip), vehicle: gum acacia 100 % of control | dose: 200.0 mg/kg/injection, schedule: Q01DX009 (ip), vehicle: gum acacia 103 % of control | dose: 200.0 mg/kg/injection, schedule: Q04DX003 (ip), vehicle: gum acacia 92 % of control | dose: 400.0 mg/kg/injection, schedule: Q04DX003 (ip), vehicle: gum acacia 96 % of control

[C-]#[N+]C(C)(c1ccccc1)c1ccccc1
inactive: dose: 12.5 mg/kg/injection, schedule: Q01DX001 (ip), vehicle: acetone 92 % of control | dose: 25.0 mg/kg/injection, schedule: Q01DX001 (ip), vehicle: acetone 95 % of control | dose: 50.0 mg/kg/injection, schedule: Q01DX001 (ip), vehicle: acetone 110 % of control

COC(=O)c1cc2nccc3c4ccccc4n(c1=O)c23
inactive: dose: 100.0 mg/kg/injection, schedule: Q04DX003 (ip), vehicle: alcohol 103 % of control | dose: 200.0 mg/kg/injection, schedule: Q04DX003 (ip), vehicle: alcohol 97 % of control | dose: 400.0 mg/kg/injection, schedule: Q04DX003 (ip), vehicle: alcohol 98 % of control

NCCN1C(=O)C2C3CCC(O3)C2C1=O (stereo unspecified)
inactive: dose: 100.0 mg/kg/injection, schedule: Q01DX001 (ip), vehicle: carboxymethylcellulose (CMC) 97 % of control and 107 % of control | dose: 100.0 mg/kg/injection, schedule: Q04DX002 (ip), vehicle: carboxymethylcellulose (CMC) 97 % of control and 88 % of control | dose: 100.0 mg/kg/injection, schedule: Q04DX003 (ip), vehicle: carboxymethylcellulose (CMC) 101 % of control and 112 % of control | dose: 200.0 mg/kg/injection, schedule: Q01DX001 (ip), vehicle: carboxymethylcellulose (CMC) 97 % of control and 104 % of control | dose: 200.0 mg/kg/injection, schedule: Q04DX002 (ip), vehicle: carboxymethylcellulose (CMC) 93 % of control and 94 % of control | dose: 200.0 mg/kg/injection, schedule: Q04DX003 (ip), vehicle: carboxymethylcellulose (CMC) 104 % of control and 105 % of control | dose: 400.0 mg/kg/injection, schedule: Q01DX001 (ip), vehicle: carboxymethylcellulose (CMC) 96 % of control and 103 % of control | dose: 400.0 mg/kg/injection, schedule: Q04DX002 (ip), vehicle: carboxymethylcellulose (CMC) 108 % of control and 88 % of control | dose: 400.0 mg/kg/injection, schedule: Q04DX003 (ip), vehicle: carboxymethylcellulose (CMC) 96 % of control and 100 % of control

O=S(=O)(O)c1ccc(CCCCCCCl)cc1
inactive: [6] 93 % of control | [7] 87 % of control

c1ccc(CSc2ncnc3nncnc23)cc1
inactive: dose: 5.0 mg/kg/injection, schedule: Q01DX001 (ip), vehicle: other 104 % of control | dose: 10.0 mg/kg/injection, schedule: Q01DX001 (ip), vehicle: other 95 % of control | dose: 20.0 mg/kg/injection, schedule: Q01DX001 (ip), vehicle: other 110 % of control | dose: 40.0 mg/kg/injection, schedule: Q01DX001 (ip), vehicle: other 101 % of control | dose: 80.0 mg/kg/injection, schedule: Q01DX001 (ip), vehicle: other 98 % of control | [8] 89 % of control | [9] 101 % of control

c1cc[n+](CC[n+]2ccccc2)cc1
inactive: [1] 97 % of control | dose: 100.0 mg/kg/injection, schedule: Q01DX009 (ip), vehicle: Klucel (hydroxypropylcellulose) (HPC) 100 % of control | dose: 100.0 mg/kg/injection, schedule: Q01DX009 (ip), vehicle: saline 101 % of control | dose: 100.0 mg/kg/injection, schedule: Q04DX003 (ip), vehicle: Klucel (hydroxypropylcellulose) (HPC) 107 % of control | [2] 103 % of control | dose: 200.0 mg/kg/injection, schedule: Q01DX009 (ip), vehicle: Klucel (hydroxypropylcellulose) (HPC) 103 % of control | dose: 200.0 mg/kg/injection, schedule: Q01DX009 (ip), vehicle: saline 93 % of control | dose: 200.0 mg/kg/injection, schedule: Q04DX003 (ip), vehicle: Klucel (hydroxypropylcellulose) (HPC) 101 % of control | [3] 94 % of control | dose: 400.0 mg/kg/injection, schedule: Q01DX009 (ip), vehicle: Klucel (hydroxypropylcellulose) (HPC) 91 % of control | dose: 400.0 mg/kg/injection, schedule: Q01DX009 (ip), vehicle: saline 90 % of control | dose: 400.0 mg/kg/injection, schedule: Q04DX003 (ip), vehicle: Klucel (hydroxypropylcellulose) (HPC) 98 % of control

O=[N+]([O-])c1ccc(-[n+]2nc(-c3ccccc3)nn2-c2ccc(I)cc2)cc1
inactive: dose: 8.0 mg/kg/injection, schedule: Q01DX015 (ip), vehicle: carboxymethylcellulose (CMC) 96 % of control | dose: 16.0 mg/kg/injection, schedule: Q01DX015 (ip), vehicle: carboxymethylcellulose (CMC) 96 % of control | dose: 32.0 mg/kg/injection, schedule: Q01DX015 (ip), vehicle: carboxymethylcellulose (CMC) 103 % of control | dose: 50.0 mg/kg/injection, schedule: Q01DX001 (ip), vehicle: carboxymethylcellulose (CMC) 91 % of control | dose: 64.0 mg/kg/injection, schedule: Q01DX015 (ip), vehicle: carboxymethylcellulose (CMC) 88 % of control

N#CCCCOc1cccc(N)c1
inactive: [1] 101 % of control | [2] 101 % of control | [3] 101 % of control

C(=N\N(Cc1ccccc1)CN(Cc1ccccc1)/N=C/c1ccccc1)/c1ccccc1
inactive: [8] 90 % of control | [9] 94 % of control | dose: 400.0 mg/kg/injection, schedule: Q01DX001 (ip), vehicle: other 87 % of control

COc1cc(/C=C2\CN(C)C(=O)C2=O)ccc1O
inactive: [4] 101 % of control | [10] 105 % of control | [5] 100 % of control | dose: 200.0 mg/kg/injection, schedule: Q04DX003 (ip), vehicle: saline with Tween-80 98 % of control | [11] 101 % of control | [12] 96 % of control

O=C1CCCCC(=O)OCCC1
inactive: [1] 93 % of control | [2] 98 % of control | [3] 88 % of control

COc1cc2cc(C)c(I)cc2cc1OC
inactive: dose: 75.0 mg/kg/injection, schedule: Q04DX003 (ip), vehicle: Klucel (hydroxypropylcellulose) (HPC) 97 % of control | dose: 150.0 mg/kg/injection, schedule: Q04DX003 (ip), vehicle: Klucel (hydroxypropylcellulose) (HPC) 97 % of control | dose: 300.0 mg/kg/injection, schedule: Q04DX003 (ip), vehicle: Klucel (hydroxypropylcellulose) (HPC) 103 % of control

Cc1ccc(Cl)cc1NC(=O)Nc1cc(Cl)c(Cl)cc1C
inactive: dose: 50.0 mg/kg/injection, schedule: Q04DX003 (ip), vehicle: saline with Tween-80 94 % of control and 88 % of control | dose: 100.0 mg/kg/injection, schedule: Q01DX001 (ip), vehicle: saline with Tween-80 100 % of control | [4] 95 % of control and 97 % of control | [13] 95 % of control and 106 % of control | [10] 96 % of control | dose: 200.0 mg/kg/injection, schedule: Q01DX001 (ip), vehicle: saline with Tween-80 86 % of control | [5] 93 % of control and 97 % of control | [14] 97 % of control and 88 % of control | dose: 400.0 mg/kg/injection, schedule: Q01DX001 (ip), vehicle: saline with Tween-80 89 % of control | [11] 98 % of control and 105 % of control | [15] 101 % of control and 92 % of control | [12] 95 % of control and 88 % of control

COc1cc2c(cc1OC)/C(=N/N)CCC2
inactive: dose: 50.0 mg/kg/injection, schedule: Q04DX003 (ip), vehicle: Klucel (hydroxypropylcellulose) (HPC) 95 % of control

Cc1ccc(/C=N/NC(N)=S)nn1
inactive: [6] 117 % of control | [7] 98 % of control

S=C(NC1CCCCC1)NC1CC2C=CC1C2 (stereo unspecified)
inactive: [13] 90 % of control | [14] 93 % of control | [15] 93 % of control
